Experimental data as given in ChEMBL document CHEMBL3792304 (Eur J Med Chem, 2016).

Key:
Hepatitis C virus [1] = test: Antiviral activity against HCV subtype 1b by replicon assay; assay type: functional, organism-based, Hepacivirus hominis; conditions: genotype 1b
Hepatitis C virus [2] = test: Antiviral activity against Hepatitis C virus genotype 1b infected in human Huh7ET cells expressing LucUbiNeo fusion protein measured after 2 days by luciferase Bright-Glo assay; assay type: functional, organism-based, Hepacivirus hominis; conditions: Huh-7, 48 h
[3] = Cytotoxicity against human Huh7ET cells expressing LucUbiNeo fusion protein measured after 4 hrs at 37 degC by MTT assay; assay type: cell-based, Huh-7
[4] = Selectivity index, ratio of CC50 for human Huh7ET cells expressing LucUbiNeo fusion protein to EC50 for Hepatitis C virus genotype 1b infected in human […] cells; assay type: toxicity, cell-based; conditions: read-out: Ratio CC50/EC50

## CC(C)OC(=O)[C@H](C)NP(=O)(OC[C@H]1O[C@@H](n2ccc(=O)[nH]c2=O)[C@](C)(F)[C@@H]1O)Oc1ccccc1 (some centres not stated)
Hepatitis C virus [1]
  EC50: 0.048 µM

## Cn1c(=O)c(-c2c(Cl)cccc2Cl)cc2cnc(Nc3ccccc3)nc21
Hepatitis C virus [2]
  EC50: 0.23 µM
[3]
  CC50 at 4 h: 0.9 µM

## Cn1c(=O)c(-c2ccccc2)cc2c(N)nc(Nc3ccccc3)nc21
Hepatitis C virus [2]
  EC50: 0.9 µM
[3]
  CC50 at 4 h: 23.5 µM

## Cn1c(=O)c(-c2c(Br)cccc2Br)cc2c(N)nc(Nc3ccccc3)nc21
Hepatitis C virus [2]
  EC50: 0.3 µM
[3]
  CC50 at 4 h: 0.8 µM

## Cn1c(=O)c(-c2c(F)cccc2C(F)(F)F)cc2c(N)nc(Nc3ccccc3)nc21
Hepatitis C virus [2]
  EC50: 2.8 µM
[3]
  CC50 at 4 h: 6.3 µM

## O=C1Nc2nc(Nc3ccccc3)nc(On3nnc4ccccc43)c2CC1c1ccc(F)cc1 (configuration not stated)
Hepatitis C virus [2]
  EC50: 1.28 µM
[3]
  CC50 at 4 h: 12.2 µM

## O=C1Nc2nc(NCc3ccccc3)[nH]c(=O)c2CC1c1c(Cl)cccc1Cl (configuration not stated)
Hepatitis C virus [2]
  EC50: 9.6 µM
[3]
  CC50 at 4 h: 69 µM

## Nc1nc(Nc2ccccc2)nc2[nH]c(=O)c(-c3c(F)cccc3F)cc12
Hepatitis C virus [2]
  EC50: 17.5 µM
[3]
  CC50 at 4 h: 2.4 µM

## CCCCn1c(=O)c(-c2c(Cl)cccc2Cl)cc2c(N)nc(Nc3ccccc3)nc21
Hepatitis C virus [2]
  EC50: 11.9 µM

## O=C1Nc2nc(Nc3ccccc3)nc(On3nnc4ccccc43)c2CC1c1ccc(Cl)cc1Cl (configuration not stated)
Hepatitis C virus [2]
  EC50: 1.35 µM
[3]
  CC50 at 4 h: 5.5 µM

## Cn1c(=O)c(-c2c(F)cccc2F)cc2c(N)nc(Nc3ccccc3)nc21
Hepatitis C virus [2]
  EC50: 0.16 µM
[3]
  CC50 at 4 h: 10.4 µM

## CSc1nc2c(c(=O)[nH]1)CC(Cc1ccccc1)C(=O)N2 (configuration not stated)
Hepatitis C virus [2]
  EC50: 11.2 µM
[3]
  CC50 at 4 h: 38.3 µM

## COCCOc1nc(N)nc2c1CC(c1c(Cl)cccc1Cl)C(=O)N2 (configuration not stated)
Hepatitis C virus [2]
  EC50: 22 µM
[3]
  CC50 at 4 h: 65 µM

## O=c1[nH]c2nc(Nc3ccccc3)[nH]c(=O)c2cc1-c1ccc(F)cc1
Hepatitis C virus [2]
  EC50: 0.034 µM
[3]
  CC50 at 4 h: 13.5 µM
[4]
  selectivity ratio: 397

## O=C1Nc2nc(Nc3ccccc3)[nH]c(=O)c2CC1c1c(F)cccc1F (configuration not stated)
Hepatitis C virus [2]
  EC50: 0.027 µM
[3]
  CC50 at 4 h: 5.3 µM
[4]
  selectivity ratio: 196

## COc1ccc(Nc2nc3[nH]c(=O)c(-c4ccc(F)cc4)cc3c(=O)[nH]2)cc1
Hepatitis C virus [2]
  EC50: 9.4 µM
[3]
  CC50 at 4 h: 46 µM

## Cn1c(=O)c(-c2c(Cl)cccc2Cl)cc2c(N)nc(N)nc21
Hepatitis C virus [2]
  EC50: 16.7 µM
[3]
  CC50 at 4 h: 120 µM

## CCCCCNc1nc(N)nc2c1cc(-c1ccc(F)cc1)c(=O)n2C
Hepatitis C virus [2]
  EC50: 20.9 µM
[3]
  CC50 at 4 h: 79.8 µM

## CCCOCCNc1nc(Nc2ccccc2)nc2c1cc(-c1c(Cl)cccc1Cl)c(=O)n2C
Hepatitis C virus [2]
  EC50: 5.1 µM
[3]
  CC50 at 4 h: 84.7 µM

## CCCn1c(=O)c(-c2c(Cl)cccc2Cl)cc2c(N)nc(Nc3ccccc3)nc21
Hepatitis C virus [2]
  EC50: 1.4 µM
[3]
  CC50 at 4 h: 181 µM

## CCCOCCNc1nc(Oc2ccccc2)nc2[nH]c(=O)c(-c3ccc(F)cc3)cc12
Hepatitis C virus [2]
  EC50: 3.3 µM
[3]
  CC50 at 4 h: 79.8 µM

## CCn1c(=O)c(-c2c(Cl)cccc2Cl)cc2c(N)nc(Nc3ccccc3)nc21
Hepatitis C virus [2]
  EC50: 6.3 µM

## CCCOCCNc1nc(N)nc2c1cc(-c1ccc(F)cc1)c(=O)n2C
Hepatitis C virus [2]
  EC50: 4.7 µM
[3]
  CC50 at 4 h: 54.3 µM

## CCCOCCOc1nc(N)nc2c1cc(-c1c(Cl)cccc1Cl)c(=O)n2C
Hepatitis C virus [2]
  EC50: 10.4 µM
[3]
  CC50 at 4 h: 50.1 µM

## CC(C)Cn1c(=O)c(-c2c(Cl)cccc2Cl)cc2c(N)nc(Nc3ccccc3)nc21
Hepatitis C virus [2]
  EC50: 0.22 µM
[3]
  CC50 at 4 h: 185 µM

## Nc1nc(Nc2ccccc2)nc2[nH]c(=O)c(-c3ccccc3)cc12
Hepatitis C virus [2]
  EC50: 0.49 µM
[3]
  CC50 at 4 h: 13.8 µM

## CCCCCNc1nc(N)nc2[nH]c(=O)c(-c3c(Cl)cccc3Cl)cc12
Hepatitis C virus [2]
  EC50: 3.2 µM
[3]
  CC50 at 4 h: 11 µM

## CCCOCCNc1nc(Nc2ccccc2)nc2c1CC(c1c(Cl)cccc1Cl)C(=O)N2 (configuration not stated)
Hepatitis C virus [2]
  EC50: 12.4 µM
[3]
  CC50 at 4 h: 50.5 µM

## COCCn1c(=O)c(-c2c(Cl)cccc2Cl)cc2c(N)nc(Nc3ccccc3)nc21
Hepatitis C virus [2]
  EC50: 0.99 µM
[3]
  CC50 at 4 h: 241 µM

## Nc1nc(Nc2ccccc2)nc2[nH]c(=O)c(-c3c(Br)cccc3Br)cc12
Hepatitis C virus [2]
  EC50: 7.7 µM
[3]
  CC50 at 4 h: 166 µM

## Nc1nc(Nc2ccccc2)nc2c1cc(-c1c(Cl)cccc1Cl)c(=O)n2CCO
Hepatitis C virus [2]
  EC50: 2.3 µM
[3]
  CC50 at 4 h: 29.3 µM

## CCCOCCNc1nc(N)nc2[nH]c(=O)c(-c3ccc(F)cc3)cc12
Hepatitis C virus [2]
  EC50: 2.1 µM
[3]
  CC50 at 4 h: 130 µM

## O=C1Nc2nc(Oc3ccccc3)nc(On3nnc4ccccc43)c2CC1c1ccc(F)cc1 (configuration not stated)
Hepatitis C virus [2]
  EC50: 18.6 µM
[3]
  CC50 at 4 h: 62.7 µM

## Cn1c(=O)c(-c2ccc(F)cc2)cc2c(N3CCCC3)nc(N)nc21
Hepatitis C virus [2]
  EC50: 10.5 µM
[3]
  CC50 at 4 h: 111 µM
